Measured values from patent US20260167829A1, “USES OF DIAZIRINES” (Nanyang Technological University, priority 2022, published 2026).
“Also recorded” adds a separate entry of the source.

Assays:
[1] = Photorheometry of CaproGlu binary formulations (365 nm UVA, 10 J·cm^−2); format: physicochemical; conditions: neat component of Table 3; steady state viscosity, shear rate 10 sec^−1
Procedure: Rheometry was carried out on an Anton Paar MCR 102 rheometer (Anton Paar, Singapore) with a custom photocuring setup as described previously (Djordjevic, I. et al., Biomaterials 2020, 260, 120215). A PP10 parallel plate stainless steel probe was used, with a 0.2 mm measuring gap. Steady State Viscosity was measured first (shear rate 10 sec^−1), followed by a dynamic oscillatory strain measurement during photocuring (UV ON at 30 seconds, off at 2 minutes 10 seconds, 1% shear, frequency 10 Hz, amplitude 1%), then an Amplitude Sweep (shear 1-1000-%, angular frequency 10 rad-sec^−1). In reporting of G′ and G″, a smoothing function was applied. The UV lamp used was a Thor Labs 365 nm SOLIS High-Power LED connected to a DC2200 LED Driver set to constant current mode. […]
Covalent crosslinking was monitored via complex shear modulus (G*), which was measured on a custom photorheometer fitted with a narrow-band 365 nm UV diode and normal-force load cell. […] Dynamic viscosity, G′ (storage modulus), G″ (loss modulus), and normal force (caused by expansion/contraction of polymer matrix) were continually monitored and subsequently analysed for yield stress/strain with an amplitude sweep. Functional groups were qualitatively assessed before and after curing via ATR-FTIR spectroscopy to observe consumption. […]

[2] = test system: 3T3 fibroblasts or HeLa cell lines; test: In vitro biocompatibility Alamar Blue assay; format: cell-based; conditions: 48 hours of incubation; all concentrations (0.01-1 mM)
Procedure: Cells seeded in wells (5 replicates for each group) with 100 μl DMEM media (10% FBS, 1% antibiotic). Incubated for 24 and 48 h, in a 96-well plate, 10000 cells/well, using 3T3 fibroblasts or HeLa cell lines. After 24 h, DMEM media replaced with 100 μl DMEM with dissolved test compounds (Test compounds dissolved in DMEM media to obtain final conc. of 1, 0.5, 0.1, 0.01 mM). After 24 hours of incubation, 10 μl resazurin solution (0.015%) dissolved in PBS was added to the wells followed by incubation for 3 hours. Readings taken post 24 hours and 48 hours of sample addition. (Ex-570 nm, Em-590 nm), Controls: Blank media without cells, Media with cells, Readings for (Blank media without cells) subtracted from all groups, Readings normalized against (media with cells group—100%)

[3] = UV/VIS spectroscopy, molar absorption; format: physicochemical
Procedure: The solution is then added to UV/VIS quartz tube with a path length of 1 cm. The background is normalized to chloroform. The samples are tested in the wavelength range of 200 to 800 nm at a medium scan rate of 2 nm, and a slit width of 0.5 nm. Data are collected in absorbance values (A) against wavelength (nm).

[4] = Stability of PEGDA/PTHT mixtures with photoinitiator under indoor light; format: physicochemical; conditions: PEGDA+PTHT 2:1 binary mixture, 1 mol % initiator, no solvent
Procedure: Polyethylene glycol diacrylate (Mw˜575 Da), referred to as “PEGDA” further in text is used in all the experiments. PEGDA/PTHT samples are prepared by magnetic stirring of PEGDA and PTHT polymer blend (2:1 molar ratio) with diazirine photoinitiators (1 mol % DzOH or 1 mol % CG relative to the total number of mols of PEGDA in each sample). Samples with standard TPO photoinitiator (1 mol %) are used as controls. The mixing of compounds (PEGDA+PTHT) in binary mixture with photoinitiators (DzOH, CG and TPO) is completed without any solvent.

SMILES: O=C(CCS)OCC(COC(=O)CCS)(COC(=O)CCS)COC(=O)CCS [PTHT, pentaerythritol tetrakis 3-mercaptopropionate]
- viscosity [1]: [drawing 17] PTHT, Mw = 488.66 g · mol^-1, viscosity = 667 ± 49 mPa · s mPa·s

SMILES: OCc1ccc(C2(C(F)(F)F)N=N2)cc1 [DzOH, 4-[3-(Trifluoromethyl)-3H-diazirin-3-yl]benzyl alcohol]
- Cell viability [2]: not significantly different from control

SMILES: Cc1cc(C)c(C(=O)P(=O)(c2ccccc2)c2ccccc2)c(C)c1 [TPO, Diphenyl(2,4,6-trimethylbenzoyl)phosphine oxide]
- molar absorption coefficient ([3]; @ 381 nm): 520 cm^−1M^−1
- stability under indoor lighting [4]: activated under indoor light; also recorded: unstable and prematurely crosslinked under fluorescent lights and white LED emitters

SMILES: O=C(O)c1ccc(C2(C(F)(F)F)N=N2)cc1 [DzCOOH, 4-[3-(Trifluoromethyl)-3H-diazirin-3-yl]benzoic acid]
- absorbance above 400 nm ([3]; previous UV-Vis studies): does not have an absorbance above 400 nm
